Data taken from ChEMBL document CHEMBL1125198, “Synthesis, ligand binding, QSAR, and CoMFA study of 3 beta-(p-substituted phenyl)tropane-2 beta-carboxylic acid methyl esters” (J Med Chem, 1991).

These compounds were tested against Sodium-dependent dopamine transporter (Rattus norvegicus, UniProt P23977) (assay: Affinity against cocaine binding site of dopamine transporter in rat striatum using [3H]2b as radioligand.).
Sequence of Sodium-dependent dopamine transporter (P23977 whole entry): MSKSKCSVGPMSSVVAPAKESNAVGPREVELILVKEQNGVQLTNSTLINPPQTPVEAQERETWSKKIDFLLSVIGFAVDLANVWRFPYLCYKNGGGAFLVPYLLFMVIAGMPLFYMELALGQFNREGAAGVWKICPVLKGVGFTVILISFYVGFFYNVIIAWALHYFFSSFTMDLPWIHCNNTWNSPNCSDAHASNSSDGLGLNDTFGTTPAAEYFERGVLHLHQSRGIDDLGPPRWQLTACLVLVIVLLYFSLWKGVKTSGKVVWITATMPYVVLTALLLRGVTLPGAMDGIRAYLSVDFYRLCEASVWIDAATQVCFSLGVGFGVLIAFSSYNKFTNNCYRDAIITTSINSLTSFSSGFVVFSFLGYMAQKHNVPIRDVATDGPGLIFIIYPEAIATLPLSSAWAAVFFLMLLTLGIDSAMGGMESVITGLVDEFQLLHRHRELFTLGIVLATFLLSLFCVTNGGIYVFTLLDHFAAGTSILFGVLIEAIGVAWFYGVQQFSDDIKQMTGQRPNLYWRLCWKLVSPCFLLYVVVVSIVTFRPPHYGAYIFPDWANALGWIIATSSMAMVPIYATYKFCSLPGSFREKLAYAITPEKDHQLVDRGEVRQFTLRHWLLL
Format: tissue-based
Work on COC(=O)C1C2CC[C@H](C[C@H]1c1ccc(C)cc1)N2C (some centres not stated) yielded an IC50 of 1.71 nM.
COC(=O)[C@@H]1C2CC[C@H](C[C@@H]1c1ccc(NC(C)=O)cc1)N2C was tested, and the IC50 was 64.2 nM.
With CCOC(=O)Nc1ccc([C@H]2C[C@H]3CCC([C@H]2C(=O)OC)N3C)cc1 the IC50 was 316 nM.
COC(=O)C1C2CC[C@H](C[C@@H]1c1ccc(I)cc1)N2C (some centres not stated) was tested, and the IC50 was 1.26 nM.
COC(=O)C1C2CC[C@H](C[C@@H]1c1ccc(Cl)cc1)N2C (some centres not stated) gave an IC50 of 1.17 nM.
COC(=O)[C@@H]1C2CC[C@H](C[C@@H]1c1ccc(N=[N+]=[N-])cc1)N2C was tested, and the IC50 was 2.12 nM.
Work on COC(=O)[C@@H]1C2CC[C@H](C[C@@H]1c1cccs1)N2C yielded an IC50 of 257 nM.
COC(=O)[C@@H]1C2CC[C@H](C[C@@H]1c1ccc(C(F)(F)F)cc1)N2C showed an IC50 of 13.1 nM.
In the case of CCC(=O)Nc1ccc([C@H]2C[C@H]3CCC([C@H]2C(=O)OC)N3C)cc1, the IC50 is reported as 68 nM.
In the case of COC(=O)[C@@H]1C2CC[C@H](C[C@@H]1c1ccc(N)cc1)N2C, the IC50 is reported as 24.8 nM.
COC(=O)C1C2CC[C@H](C[C@H]1c1ccc(Br)cc1)N2C (some centres not stated) gave an IC50 of 1.81 nM.
Compound COC(=O)[C@@H]1C2CC[C@H](C[C@@H]1c1ccccc1)N2C has an IC50 of 23 nM.
